# Values joined by “and” are separate entries in the source; they are usually repeats but may differ in a detail not shown here. Identical values can stand only once. Active and inactive are the calls of the source. The calls were made as follows: active = viability on the fitted dose curve at most 10% of control; inactive = the rest.
# Tested on: NCI-H211 tumor spheroids, viability percent test/control
# Assay: Anticancer human tumor NCI-H211 cell line growth inhibition;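 as to IC50: spheroids exposed to agents for seven days before readout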;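 as to viability, T/C: spheroids exposed to agents for seven days before readout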
# Conditions: spheroids with HUVEC and MSC; for viability, T/C: stronger effect = lower value
# Summary of the method: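 Single agents and combinations were tested on spheroids built from tumor cells plus HUVEC and hMSC, at half-log dilutions starting at or near clinical Cmax, else 10 microM; final DMSO 0.25% (v/v).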
smiles,measurement,setting,value
COc1cc(C)[nH]c(=O)c1CN1CCc2c(Cl)cc(C(OC)C3COC3)c(Cl)c2C1=O (stereo not drawn) + CC[C@@]1(O)C(=O)OCc2c1cc1n(c2=O)Cc2cc3c(CN(C)C)c(O)ccc3nc2-1,IC50,"curve of first compound, second compound 0.003 µM",> 10 µM
same,IC50,"curve of first compound, second compound 0.00949 µM",0.0443 µM
same,IC50,"curve of first compound, second compound 0.03 µM",< 0.0316 µM
same,IC50,"curve of first compound, second compound 0.0949 µM",< 0.0316 µM
same,IC50,"curve of first compound, second compound 0.3 µM",< 0.0316 µM
same,"viability, T/C","second compound 0.003 µM, first compound 0.0316 µM",97.8%
same,"viability, T/C","second compound 0.003 µM, first compound 0.1 µM",94.2%
same,"viability, T/C","second compound 0.003 µM, first compound 0.316 µM",94.5%
same,"viability, T/C","second compound 0.003 µM, first compound 1 µM",80.2%
same,"viability, T/C","second compound 0.003 µM, first compound 3.16 µM",84.6%
same,"viability, T/C","second compound 0.003 µM, first compound 10 µM",79.1%
same,"viability, T/C","second compound 0.00949 µM, first compound 0.0316 µM",61.2%
same,"viability, T/C","second compound 0.00949 µM, first compound 0.1 µM",23.1%
same,"viability, T/C","second compound 0.00949 µM, first compound 0.316 µM",19.7%
same,"viability, T/C","second compound 0.00949 µM, first compound 1 µM",23.1%
same,"viability, T/C","second compound 0.00949 µM, first compound 3.16 µM",20.5%
same,"viability, T/C","second compound 0.00949 µM, first compound 10 µM",17.4%
same,"viability, T/C","second compound 0.03 µM, first compound 0.0316 µM",2.26%
same,"viability, T/C","second compound 0.03 µM, first compound 0.1 µM",1.33%
same,"viability, T/C","second compound 0.03 µM, first compound 0.316 µM",1.49%
same,"viability, T/C","second compound 0.03 µM, first compound 1 µM",1.03%
same,"viability, T/C","second compound 0.03 µM, first compound 3.16 µM",0.89%
same,"viability, T/C","second compound 0.03 µM, first compound 10 µM",1.35%
same,"viability, T/C","second compound 0.0949 µM, first compound 0.0316 µM",1.49%
same,"viability, T/C","second compound 0.0949 µM, first compound 0.1 µM",1.42%
same,"viability, T/C","second compound 0.0949 µM, first compound 0.316 µM",1.65%
same,"viability, T/C","second compound 0.0949 µM, first compound 1 µM",1.41%
same,"viability, T/C","second compound 0.0949 µM, first compound 3.16 µM",1.22%
same,"viability, T/C","second compound 0.0949 µM, first compound 10 µM",0.83%
same,"viability, T/C","second compound 0.3 µM, first compound 0.0316 µM",1.31%
same,"viability, T/C","second compound 0.3 µM, first compound 0.1 µM",1.63%
same,"viability, T/C","second compound 0.3 µM, first compound 0.316 µM",1.29%
same,"viability, T/C","second compound 0.3 µM, first compound 1 µM",1.18%
same,"viability, T/C","second compound 0.3 µM, first compound 3.16 µM",1.75%
same,"viability, T/C","second compound 0.3 µM, first compound 10 µM",0.92%
COc1ccc([C@@H](O)c2cc(-c3ncnc4cc(N5CCOCC5)ccc34)c(F)cc2Cl)nn1,"viability, T/C",compound 0.0316 µM,102% and 96.3% and 105%
same,"viability, T/C",compound 0.1 µM,100% and 102% and 109%
same,"viability, T/C",compound 0.316 µM,95.9% and 93.1% and 104%
same,"viability, T/C",compound 1 µM,90.3% and 101%
same,outcome,compound 1 µM,inactive
same,"viability, T/C",compound 3.16 µM,74.8% and 85% and 96%
same,"viability, T/C",compound 10 µM,11.4% and 40.7% and 40.8%
same,IC50,curve of compound,4.87 µM and 7.85 µM and 8.3 µM
CC1COCCN1c1cc(-c2ccnn2C)c2ccnc(-c3ccn[nH]3)c2n1 (stereo not drawn) + Cn1nnc2c(C(N)=O)ncn2c1=O,IC50,"curve of first compound, second compound 1 µM",< 0.0316 µM
same,IC50,"curve of first compound, second compound 3.16 µM",< 0.0316 µM
same,IC50,"curve of first compound, second compound 10 µM",< 0.0316 µM
same,IC50,"curve of first compound, second compound 31.6 µM",< 0.0316 µM
same,IC50,"curve of first compound, second compound 100 µM",< 0.0316 µM
same,"viability, T/C","second compound 1 µM, first compound 0.0316 µM",11.4%
same,"viability, T/C","second compound 1 µM, first compound 0.1 µM",1.45%
same,"viability, T/C","second compound 1 µM, first compound 0.316 µM",0.83%
same,"viability, T/C","second compound 1 µM, first compound 1 µM",0.74%
same,"viability, T/C","second compound 1 µM, first compound 3.16 µM",0.72%
same,"viability, T/C","second compound 1 µM, first compound 10 µM",1.43%
same,"viability, T/C","second compound 3.16 µM, first compound 0.0316 µM",9.67%
same,"viability, T/C","second compound 3.16 µM, first compound 0.1 µM",1.34%
same,"viability, T/C","second compound 3.16 µM, first compound 0.316 µM",0.86%
same,"viability, T/C","second compound 3.16 µM, first compound 1 µM",0.68%
same,"viability, T/C","second compound 3.16 µM, first compound 3.16 µM",0.72%
same,"viability, T/C","second compound 3.16 µM, first compound 10 µM",1.44%
same,"viability, T/C","second compound 10 µM, first compound 0.0316 µM",6.59%
same,"viability, T/C","second compound 10 µM, first compound 0.1 µM",0.88%
same,"viability, T/C","second compound 10 µM, first compound 0.316 µM",0.79%
same,"viability, T/C","second compound 10 µM, first compound 1 µM",0.62%
same,"viability, T/C","second compound 10 µM, first compound 3.16 µM",0.67%
same,"viability, T/C","second compound 10 µM, first compound 10 µM",1.16%
same,"viability, T/C","second compound 31.6 µM, first compound 0.0316 µM",1.39%
same,"viability, T/C","second compound 31.6 µM, first compound 0.1 µM",1.09%
same,"viability, T/C","second compound 31.6 µM, first compound 0.316 µM",0.74%
same,"viability, T/C","second compound 31.6 µM, first compound 1 µM",0.59%
same,"viability, T/C","second compound 31.6 µM, first compound 3.16 µM",0.66%
same,"viability, T/C","second compound 31.6 µM, first compound 10 µM",1.11%
same,"viability, T/C","second compound 100 µM, first compound 0.0316 µM",1.19%
same,"viability, T/C","second compound 100 µM, first compound 0.1 µM",1.1%
same,"viability, T/C","second compound 100 µM, first compound 0.316 µM",0.95%
same,"viability, T/C","second compound 100 µM, first compound 1 µM",0.67%
same,"viability, T/C","second compound 100 µM, first compound 3.16 µM",0.65%
same,"viability, T/C","second compound 100 µM, first compound 10 µM",1.12%
